The target in one data set is T1, IRAK4 (Homo sapiens, UniProt Q9NWZ3).
T1 construct: expressed in transfected cells; host or cells: K562 IRAK4-HiBiT cells
T1 sequence (Q9NWZ3 1-460): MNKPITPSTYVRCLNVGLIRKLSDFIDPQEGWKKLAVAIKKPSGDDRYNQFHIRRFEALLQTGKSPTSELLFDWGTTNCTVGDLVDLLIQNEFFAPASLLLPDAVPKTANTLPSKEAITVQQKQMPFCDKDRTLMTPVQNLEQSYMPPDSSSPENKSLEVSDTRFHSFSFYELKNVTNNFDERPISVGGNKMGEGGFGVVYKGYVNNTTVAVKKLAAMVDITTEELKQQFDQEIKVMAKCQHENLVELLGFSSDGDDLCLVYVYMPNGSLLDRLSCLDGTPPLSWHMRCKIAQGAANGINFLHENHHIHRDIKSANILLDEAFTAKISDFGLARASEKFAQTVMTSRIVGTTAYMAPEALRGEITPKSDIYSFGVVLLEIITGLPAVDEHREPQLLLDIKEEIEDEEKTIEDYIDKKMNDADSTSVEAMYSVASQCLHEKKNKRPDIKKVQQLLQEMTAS
In words: Target protein degradation effect in K562 IRAK4-HiBiT cells (Nano-Glo HiBiT). The class given is cell-based. The conditions noted are these: incubated 16 to 18 hours. The protocol: Experimental purpose: In this experiment, the degradation effect of the test compound on the target protein IRAK4 in K562 IRAK4-HiBiT cells was detected.
• Cells: K562 IRAK4-HiBiT cells • Culture media: RPMI 1640+10% FBS+2 mM GlutaMax+1 mM sodium pyruvate+penicillin/streptomycin • Positive control: 1000 nM; negative control: 0.1% DMSO
• (1). The compound to be tested in powder form was dissolved in DMSO to 10 mM as a storage concentration, and 9 μL of the 10 mM compound to be tested was manually pipetted to column 1 and column 13 of an LDV plate using a pipette; • (2). 6 μL of DMSO was added to columns 2 to 12 and 14 to 24 using Multidrop Combi; [0688](3). the compound to be tested was 3-fold diluted (3 μL+6 μL) from columns 1 to 11 and 13 to 23 using Bravo; • (4). 25 nL of compound solution (columns 1 to 24 of the LDV plate) was transferred to an assay plate using Echo according to the plate layout; • (5). 25 nL of 1 mM positive control solution was transferred to the assay plate as a 100% degradation control (i.e., LC, HPE) and 25 nL of DMSO was transferred to the assay plate as a 0% control (i.e., HC, ZPE) using Echo.
• (1). The cell culture medium was discarded, and the cells were washed once with DPBS, digested with trypsin, and counted to prepare a cell suspension of […]; • (2). 25 µL/well of cell suspension was added to the assay plate containing the compound to be tested using Multidrop Combi at medium speed; • (3). the assay plate containing cells was returned to an incubator with 5% CO2 at 37° C. and incubated for 16 to 18 hours.
• (1). 25 µL/well of assay reagent (NanoGlo lysis buffer+substrate+LgBit protein) was added to the assay plate using Multidrop Combi at high speed, and the plate was shaken for 10 minutes; • (2). the plate was centrifuged at 2000 rpm for 1 minute to remove air bubbles; • (3). the plate was read on Envision using US Luminescence detection method.
The inhibition rate (IR) of the test compound was calculated using the following formula: IR (%)=(RLU vehicle control−RLU compound)/(RLU vehicle control−RLU positive control)×100%, and the vehicle control is the blank control. The inhibition rates of compounds at different concentrations were calculated in Excel, and then XLFit software was used to plot inhibition curves and calculate relevant parameters, including minimum inhibition rate, maximum inhibition rate, and DC50.
(In general: HiBiT is a short tag that completes a luciferase, so light tracks the accessible tagged protein.)

Data set [1] in a line: Pharmacokinetic evaluation in mice, experimental operation A (CD-1). The class given is in vivo. The conditions noted are these: CD-1 mice; for bioavailability / clearance / Vd / half-life: male, mouse, plasma; for bioavailability: IV 1 mg/kg, PO 10 mg/kg, read-out: Bioavailability F; for Vd: read-out: Apparent volume of distribution; for half-life: read-out: Elimination half-life (converted). An excerpt: In this study, CD-1 or C57BL/6N male mice were selected as test animals, and LC/MS/MS method was used to quantify plasma concentrations of the test compound intravenously injected or intragastrically administered to mice at different time points, so as to evaluate the pharmacokinetic profile of the test drug in mice.
CD-1 mice (male, 20 to 35 g, 7 to 10 weeks old, Beijing Vital River) or C57BL/6N mice (male, 20 to 30 g, 7 to 10 weeks old, Beijing Vital River)
A clarified solution or suspension of the test compound was injected into CD-1 mice (overnight fasting) via the tail vein (vehicle: 10% DMSO/10% Solutol/80% H2O), or intragastrically administered into CD-1 mice (overnight fasting). For intravenous injection, blood was collected from the saphenous vein at 0 h (pre-administration) and 0.083 h, 0.25 h, 0.5 h, 1 h, 2 h, 4 h, 8 h, and 24 h after administration, and placed in an anticoagulant tube added with EDTA-K2. The mixture was thoroughly vortexed and mixed, and centrifuged at 3200 g for 10 minutes at 4° C. to obtain plasma. For oral administration, blood was collected from the saphenous vein at 0.25 h, 0.5 h, 1 h, 2 h, 4 h, 8 h, and 24 h after administration, and placed in an anticoagulant tube added with EDTA-K2 (Jiangsu Kangjian Medical Apparatus Co., Ltd.). The mixture was thoroughly vortexed and mixed, and centrifuged at 3200 g for 10 minutes at 4° C. to obtain plasma. Plasma concentrations were determined by LC-MS/MS method, and relevant pharmacokinetic parameters were calculated using Phoenix WinNonlin™ Version 6.3 (Pharsight, Mountain View, CA) pharmacokinetic software with non-compartmental model linear-log trapezoidal method.

The mark [2] stands for this setting: Intragastric administration 10 mg/kg.

Where a name gives a salt, the structure may show the parent alone.

As to `O=C1CCC(c2noc3c(NC(=O)CN4CCN(C[C@H]5CC[C@H](n6cc(NC(=O)c7cnn8ccc(N9CC%10CCC(C9)O%10)nc78)c(C(F)F)n6)CC5)CC4)cccc23)C(=O)N1` (stereo partly drawn) [Formate of WX018], at IRAK4, it took 9.11 nM to reach half-maximal degradation (DC50) and the Maximum inhibition rate came to 97.79%.

With `O=C1CCC(c2noc3c(CC(=O)NC4CCN(C[C@H]5CC[C@H](n6cc(NC(=O)c7cnn8ccc(N9C[C@H]%10C[C@@H]9CO%10)nc78)c(C(F)F)n6)CC5)CC4)cccc23)C(=O)N1` (stereo partly drawn) [Formate of WX023], on IRAK4, the DC50 was 2.55 nM and the Maximum inhibition rate is given as 103.01%.

`O=C1CCC(c2coc3cc(NC(=O)CN4CCN(C[C@H]5CC[C@H](n6cc(NC(=O)c7cnn8ccc(N9C[C@H]%10C[C@@H]9CO%10)nc78)c(C(F)F)n6)CC5)CC4)ccc23)C(=O)N1` (stereo partly drawn) [Hydrochloride of WX002]: on IRAK4, it took 24.3 nM to reach half-maximal degradation (DC50) and the Maximum inhibition rate came to 56.72%.

With `O=C1CCC(c2coc3c(C#CCOC4CCN(C[C@H]5CC[C@H](n6cc(NC(=O)c7cnn8ccc(N9C[C@H]%10C[C@@H]9CO%10)nc78)c(C(F)F)n6)CC5)CC4)cccc23)C(=O)N1` (stereo partly drawn) [Hydrochloride of WX003], on IRAK4, half-maximal degradation (DC50) was put at 25.5 nM and the Maximum inhibition rate is listed as 100.06%. Further, in data set [1] (setting [2]), the “Area under the drug-time curve (0-inf)” value worked out at 4.83 µM·h, the Peak concentration turned out to be 0.61 µM and the “Time to peak concentration” value came to 4.0 h. Further, in data set [1] (Intravenous injection 1 mg/kg), the “Area under the drug-time curve (0-inf)” value was 1.72 µM·h, the clearance was determined as 11.7 mL/min/kg, the Vd amounted to 1.71 L/kg and the half-life was 104 min. The bioavailability in data set [1] worked out at 28.2%.

In the case of `O=C1CCC(c2coc3c(NC(=O)CN4CCN(C[C@H]5CC[C@H](n6cc(NC(=O)c7cnn8ccc(N9C[C@H]%10C[C@@H]9CO%10)nc78)c(C(F)F)n6)CC5)CC4)cccc23)C(=O)N1` (stereo partly drawn) [Hydrochloride of WX006], at IRAK4, the half-maximal degradation concentration (DC50) came to 12.9 nM and the Maximum inhibition rate was 97.11%. Besides, in data set [1] (setting [2]), the “Area under the drug-time curve (0-inf)” value is 7.73 µM·h, the Peak concentration was found to be 1.73 µM and the “Time to peak concentration” value came out at 1.0 h. Moreover, in data set [1] (Intravenous injection 1 mg/kg), the “Area under the drug-time curve (0-inf)” value worked out at 1.18 µM·h, the clearance was 16.8 mL/min/kg, the Vd worked out at 1.47 L/kg and the half-life was 61.8 min. Besides, the bioavailability in data set [1] turned out to be 65.6%.

On to `O=C1CCC(c2coc3ccc4c(NC(=O)CN5CCN(C[C@H]6CC[C@H](n7cc(NC(=O)c8cnn9ccc(N%10C[C@H]%11C[C@@H]%10CO%11)nc89)c(C(F)F)n7)CC6)CC5)cccc4c23)C(=O)N1` (stereo partly drawn) [Hydrochloride of WX010], for which, at IRAK4, the half-maximal degradation concentration (DC50) was determined as 6.54 nM and the Maximum inhibition rate worked out at 74.90%.

For the compound `O=C1CCC(c2noc3ccc4c(NC(=O)CN5CCN(C[C@H]6CC[C@H](n7cc(NC(=O)c8cnn9ccc(N%10C[C@H]%11C[C@@H]%10CO%11)nc89)c(C(F)F)n7)CC6)CC5)cccc4c23)C(=O)N1` (stereo partly drawn) [Hydrochloride of WX014], at IRAK4, half-maximal degradation (DC50) was put at 4.29 nM and the Maximum inhibition rate is reported as 85.62%.

For the compound `O=C1CCC(c2coc3c(NC(=O)C(F)(F)C4CCN(C[C@H]5CC[C@H](n6cc(NC(=O)c7cnn8ccc(N9C[C@H]%10C[C@@H]9CO%10)nc78)c(C(F)F)n6)CC5)CC4)cccc23)C(=O)N1` (stereo partly drawn) [Hydrochloride of WX016], on IRAK4, it took 34.2 nM to reach half-maximal degradation (DC50) and the Maximum inhibition rate came out at 112.11%.

For `O=C1CCC(c2noc3c(NC(=O)C(F)(F)C4CCN(C[C@H]5CC[C@H](n6cc(NC(=O)c7cnn8ccc(N9C[C@H]%10C[C@@H]9CO%10)nc78)c(C(F)F)n6)CC5)CC4)cccc23)C(=O)N1` (stereo partly drawn) [Hydrochloride of WX017], at IRAK4, the DC50 came out at 7.02 nM and the Maximum inhibition rate stood at 115.78%.

Take `O=C1CCC(c2noc3c(CCCN4CCN(C[C@H]5CC[C@H](n6cc(NC(=O)c7cnn8ccc(N9C[C@H]%10C[C@@H]9CO%10)nc78)c(C(F)F)n6)CC5)CC4)cccc23)C(=O)N1` (stereo partly drawn) [Hydrochloride of WX020]: at IRAK4, the DC50 was found to be 5.43 nM and the Maximum inhibition rate was 100.80%.

With `O=C1CCC(c2noc3c(NC(=O)CN4CCC(CN5CCC(n6cc(NC(=O)c7cnn8ccc(N9C[C@H]%10C[C@@H]9CO%10)nc78)c(C(F)F)n6)CC5)CC4)cccc23)C(=O)N1` (stereo partly drawn) [Hydrochloride of WX021], at IRAK4, the DC50 was 2.59 nM and the Maximum inhibition rate stood at 102.77%.

Take `O=C1CCC(c2noc3c(CCCOC4CCN(C[C@H]5CC[C@H](n6cc(NC(=O)c7cnn8ccc(N9C[C@H]%10C[C@@H]9CO%10)nc78)c(C(F)F)n6)CC5)CC4)cccc23)C(=O)N1` (stereo partly drawn) [Hydrochloride of WX022]: at IRAK4, it took 7.14 nM to reach half-maximal degradation (DC50) and the Maximum inhibition rate was determined as 103.04%.

As to `O=C1CCC(c2noc3c(NC(=O)CN4CCC(O[C@H]5CC[C@H](n6cc(NC(=O)c7cnn8ccc(N9C[C@H]%10C[C@@H]9CO%10)nc78)c(C(F)F)n6)CC5)CC4)cccc23)C(=O)N1` (stereo partly drawn) [WX024], at IRAK4, the DC50 is 1.37 nM and the Maximum inhibition rate stood at 109.35%.

What is called DC50 is the concentration giving 50% degradation. One may read the bioavailability as the share of a dose that reaches the circulation, judged against a reference dose that is usually intravenous. As usually defined, the clearance is the volume of plasma or blood freed of the substance per unit of time. Lower therefore signals a low capacity for elimination. A word on the half-life: it is the time in which the quantity being followed falls by half.
